Assay results published in patent publication US20110262508A1, “ANTIMICROBIAL COMPOSITIONS, FORMULATIONS AND USES THEREOF” (priority 2007, published 2011).
In brackets after ≈: the same amount, converted by molar mass. One block for each compound: values may come before it. Peptide text beside a SMILES is read from it. * marks the point of attachment. Biotin = O=C1N[C@H]2[C@H](CS[C@H]2CCCCC(=O)*)N1

What was measured:
A. baumannii = type: cell-based
Method in brief: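 Laboratory strains and 50 clinical isolates of A. baumannii were tested by CLSI broth microdilution, with serially diluted peptide (0.1-64 μg) and about 1×10^5 C.F.U. per well, incubated aerobically overnight at 35±2° C. MIC was read visually. MBC came from subculturing clear wells, as ≥99.9% inoculum reduction.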

human RBC = test: Hemolysis of RBC; type: cell-based
Procedure: Varying amounts of peptide were incubated with the washed RBC for one hour at room temperature. Intact cells were pelleted by gentle centrifugation, and hemolysis of each sample was determined by absorption measurement at 450 nm. A positive control sample consisted of RBC lysed by the addition of 0.1% Triton, for which hemolysis was also determined by absorption measurement at 450 nm. Percentages of lysed RBC incubated with peptide were then calculated by the ratio of absorbances at 450 nm for the sample relative to the absorbance at 450 nm of the positive control sample. The MHC10 value was calculated as the minimum peptide concentration to induce 10% cell lysis.

[1] = Cytotoxicity against Jurkat cells (CellTiter Blue); type: cell-based, human; settings: human
Procedure: (§1) The cytotoxicities of selected peptides against human T-lymphocytes, in particular Jurkat cells, was determined by growing 100 uL Jurkat cells in RPMI (approx. 5×10^5 cells/ml density) overnight at 37° C. under 5% CO2 atmosphere, in microtiter plate wells, in the presence and absence of peptides. Control reactions either lacked peptide (negative cytotoxicity control), or contained a buffer to completely lyse Jurkat cells (positive cytotoxicity control). The viabilities of cells were then determined by addition of 20 uL CellTiter Blue dye (Promega) to each well, and incubation of cells for a further 3 hrs at 37° C. Fluorescence values were measured for 1 sec at 540 nm/615 nm, and expressed relative to fluorescence values for negative and positive cytotoxicity control samples. Comparison with a fully lysed control allowed the calculation of a percentage killing for each peptide concentration. The MCC10 value was calculated as the minimum peptide concentration required to induce 10% cytotoxicity.

Jurkat cells = test: Cytotoxicity against Jurkat cells (CellTiter Blue); type: cell-based, human
Procedure: as §1

MIC (μM) for non-amidated Peptide (A. baumannii): 20 µM
Compound: CC(C)C[C@H](NC(=O)[C@H](CC(N)=O)NC(=O)[C@H](CCCCN)NC(=O)[C@@H]1CCCN1C(=O)[C@H](CC(C)C)NC(=O)[C@H](CS)NC(=O)[C@H](Cc1ccccc1)NC(=O)[C@H](Cc1ccccc1)NC(=O)CNC(=O)[C@@H](NC(=O)[C@H](CCCNC(=N)N)NC(=O)CCCC[C@@H]1SC[C@@H]2NC(=O)N[C@@H]21)[C@@H](C)O)C(=O)N[C@@H](CCCCN)C(=O)N[C@@H](CCCNC(=N)N)C(=O)N[C@@H](CO)C(=O)N[C@@H](CCCCN)C(=O)N[C@@H](Cc1ccccc1)C(=O)N[C@@H](CS)C(=O)N[C@@H](C)C(=O)N[C@@H](Cc1ccccc1)C(=O)N[C@@H](CC(C)C)C(=O)N[C@@H](CC(=O)O)C(=O)N1CCC[C@H]1C(=O)N[C@H](C(=O)O)[C@@H](C)O [Ac323] (Biotin-RTGFFCLPKNLKRSKFCAFLDPT-OH; N-terminus and C-terminus assumed)
MHC10 (human RBC): 30 µM
cytotoxicity at 12.5 μM [1]: 9%
cytotoxicity at 25 μM [1]: 31%
cytotoxicity at 50 μM [1]: 49%
MCC10 (Jurkat cells): 13 µM

MIC (μM) for non-amidated Peptide (A. baumannii): 20 µM
Compound: CC(C)C[C@H](NC(=O)[C@H](Cc1ccccc1)NC(=O)CNC(=O)[C@H](CO)NC(=O)[C@@H]1CCCN1C(=O)[C@H](Cc1c[nH]c2ccccc12)NC(=O)[C@@H](NC(=O)[C@@H]1CCCN1C(=O)[C@H](CCCNC(=N)N)NC(=O)[C@@H](NC(=O)[C@H](C)NC(=O)[C@H](CS)NC(=O)[C@H](CCCNC(=N)N)NC(=O)[C@H](CO)NC(=O)[C@H](CO)NC(=O)[C@H](C)NC(=O)[C@H](C)NC(=O)[C@H](CCCNC(=N)N)NC(=O)[C@H](CO)NC(=O)[C@H](CO)NC(=O)[C@H](Cc1c[nH]cn1)NC(=O)[C@@H]1CCCN1C(=O)CCCC[C@@H]1SC[C@@H]2NC(=O)N[C@@H]21)C(C)C)C(C)C)C(=O)N[C@@H](CCCNC(=N)N)C(=O)O [Ac327] (Biotin-PHSSRAASSRCAVRPVWPSGFLR-OH)
MHC10 (human RBC): 30 µM
cytotoxicity at 12.5 μM [1]: 20%
cytotoxicity at 25 μM [1]: 31%
cytotoxicity at 50 μM [1]: 1%
MCC10 (Jurkat cells): 8 µM

MIC (μM) for non-amidated Peptide (A. baumannii): 12.5 µM
Compound: CC(C)C[C@H](NC(=O)[C@H](Cc1ccccc1)NC(=O)CNC(=O)[C@H](CO)NC(=O)[C@@H]1CCCN1C(=O)[C@H](Cc1c[nH]c2ccccc12)NC(=O)[C@@H](NC(=O)[C@@H]1CCCN1C(=O)[C@H](CCCNC(=N)N)NC(=O)[C@@H](NC(=O)[C@H](C)NC(=O)[C@H](CS)NC(=O)[C@H](CCCNC(=N)N)NC(=O)[C@H](CO)NC(=O)[C@H](CO)NC(=O)CCCC[C@@H]1SC[C@@H]2NC(=O)N[C@@H]21)C(C)C)C(C)C)C(=O)N[C@@H](CCCNC(=N)N)C(=O)N[C@@H](CCCNC(=N)N)C(=O)N[C@@H](CC(C)C)C(=O)N[C@@H](CO)C(=O)N[C@@H](CC(=O)O)C(=O)N[C@@H](CCCNC(=N)N)C(=O)N[C@@H](CS)C(=O)N[C@@H](CS)C(=O)O [Ac328] (Biotin-SSRCAVRPVWPSGFLRRLSDRCC-OH; N-terminus and C-terminus assumed)
MHC10 (human RBC): 20 µM
cytotoxicity at 12.5 μM [1]: 1%
cytotoxicity at 25 μM [1]: 17%
cytotoxicity at 50 μM [1]: 32%
MCC10 (Jurkat cells): 20 µM

Further lines, the compound ahead of its results:

Compound: CC[C@H](C)[C@H](NC(=O)[C@H](C)NC(=O)[C@H](CC(N)=O)NC(=O)[C@H](CS)NC(=O)[C@H](CS)NC(=O)CCCC[C@@H]1SC[C@@H]2NC(=O)N[C@@H]21)C(=O)N[C@H](C(=O)N[C@@H](Cc1ccc(O)cc1)C(=O)N[C@@H](CCCCN)C(=O)N[C@@H](Cc1c[nH]c2ccccc12)C(=O)N[C@H](C(=O)N[C@@H](CC(C)C)C(=O)N[C@@H](Cc1c[nH]cn1)C(=O)N[C@@H](Cc1ccccc1)C(=O)N[C@@H](Cc1ccccc1)C(=O)N[C@@H](Cc1c[nH]c2ccccc12)C(=O)N[C@@H](CCCNC(=N)N)C(=O)N[C@@H](CCCCN)C(=O)N[C@@H](CCCNC(=N)N)C(=O)N[C@@H](C)C(=O)N[C@@H](Cc1c[nH]c2ccccc12)C(=O)N[C@@H](Cc1ccc(O)cc1)C(=O)N[C@@H](CS)C(=O)N[C@@H](Cc1ccccc1)C(=O)O)[C@@H](C)CC)[C@@H](C)CC [Ac228] (Biotin-CCNAIIYKWILHFFWRKRAWYCF-OH; N-terminus and C-terminus assumed)
MIC (A. baumannii): 25 µM (≈ 82.4 µg/mL)
MIC (μM) for non-amidated Peptide (A. baumannii): 20 to 25 µM
bactericidal or bacteriostatic against A. baumannii (A. baumannii): bacteriostatic
MBC (μM) (A. baumannii; A. baumannii (Table 8), reduces original inoculum by at least about 99.9%): bacteriostat
MHC10 (human RBC): ~10 µM
haemolytic activity (in words) (human RBC): reproducibly higher haemolytic activities
Percent hemolysis at 5 μM peptide (human RBC; red cells of human, 5): 2.6%
Percent hemolysis at 10 μM peptide (human RBC; red cells of human, 10): 11.0%
Percent hemolysis at 20 μM peptide (human RBC; red cells of human, 20): 9.9%
Percent hemolysis at 40 μM peptide (human RBC; red cells of human, 40): 22.9%
Percent hemolysis at 60 μM peptide (human RBC; red cells of human, 60): 40.1%
Percent hemolysis at 80 μM peptide (human RBC; red cells of human, 80): 80.4%
Percent hemolysis at 100 μM peptide (human RBC; red cells of human, 1 h, 100): 97.1%
cytotoxicity at 12.5 μM [1]: 0%
cytotoxicity at 25 μM [1]: 5%
cytotoxicity at 50 μM [1]: 29%
MCC10 (Jurkat cells): 42 µM

Compound: CC[C@H](C)[C@H](NC(=O)[C@@H]1CCCN1C(=O)CCCC[C@@H]1SC[C@@H]2NC(=O)N[C@@H]21)C(=O)N1CCC[C@H]1C(=O)N[C@@H](Cc1ccccc1)C(=O)N[C@@H](Cc1ccccc1)C(=O)N[C@@H](CC(N)=O)C(=O)N[C@@H](CCCNC(=N)N)C(=O)N[C@H](C(=O)NCC(=O)N[C@@H](Cc1ccccc1)C(=O)N[C@@H](Cc1ccccc1)C(=O)N[C@@H](CS)C(=O)N[C@@H](CC(C)C)C(=O)N1CCC[C@H]1C(=O)N[C@@H](CCCCN)C(=O)N[C@@H](CC(N)=O)C(=O)N[C@@H](CC(C)C)C(=O)N[C@@H](CCCCN)C(=O)N[C@@H](CCCNC(=N)N)C(=O)N[C@@H](CO)C(=O)N[C@@H](CCCCN)C(=O)N[C@@H](Cc1ccccc1)C(=O)N[C@@H](CS)C(=O)O)[C@@H](C)O [Ac322] (Biotin-PIPFFNRTGFFCLPKNLKRSKFC-OH; N-terminus and C-terminus assumed)
MIC (μM) for non-amidated Peptide (A. baumannii): 5 µM
MHC10 (human RBC): 25 µM
cytotoxicity at 12.5 μM [1]: 0%
cytotoxicity at 25 μM [1]: 0%
cytotoxicity at 50 μM [1]: 59%
MCC10 (Jurkat cells): 30 µM

Compound: CC(C)C[C@H](NC(=O)[C@H](CC(=O)O)NC(=O)[C@H](CO)NC(=O)CCCC[C@@H]1SC[C@@H]2NC(=O)N[C@@H]21)C(=O)NCC(=O)N[C@@H](CCCCN)C(=O)N[C@@H](CO)C(=O)NCC(=O)N[C@@H](C)C(=O)NCC(=O)N[C@@H](Cc1c[nH]c2ccccc12)C(=O)N[C@@H](CCCNC(=N)N)C(=O)N[C@@H](Cc1c[nH]c2ccccc12)C(=O)N[C@@H](CCCNC(=N)N)C(=O)N[C@@H](C)C(=O)N[C@@H](CS)C(=O)N[C@@H](CC(N)=O)C(=O)N[C@H](C(=O)N[C@@H](CC(C)C)C(=O)N[C@@H](CO)C(=O)N[C@@H](CCCCN)C(=O)N[C@@H](CS)C(=O)N[C@@H](CCCNC(=N)N)C(=O)NCC(=O)O)[C@@H](C)O [Ac378] (Biotin-SDLGKSGAGWRWRACNTLSKCRG-OH; N-terminus and C-terminus assumed)
MIC (μM) for non-amidated Peptide (A. baumannii): 12.5 µM
MHC10 (human RBC): 50 µM
cytotoxicity at 12.5 μM [1]: 0%
cytotoxicity at 25 μM [1]: 0%
cytotoxicity at 50 μM [1]: 35%
MCC10 (Jurkat cells): 30 µM
